Key:
GALAP (Galium) [1] = test: Postemergence herbicidal evaluation; format: in vivo, Galium aparine; conditions: postemergence
In short: (§1)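 Each compound, dispersed in an acetone/water mix (50/50) carrying 0.5% TWEEN 20, is nozzle-sprayed at 40 psi on approximately two-week-old seedlings at about 0.0156–0.500 kg/ha. Plants are assessed 4–5 weeks afterward on a 0–9 scale relative to control; duplicate tests are averaged.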

[2] = test system: CHEAL (Lambsquarters, Common); test: Postemergence herbicidal evaluation; format: in vivo, Chenopodium album; conditions: postemergence
In short: as §1

ECHCG (Barnyardgrass) = test: Preemergence herbicidal evaluation; format: in vivo, Echinochloa crus-galli; conditions: rated 4-5 weeks after treatment
In short: (§2)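 Test compound, dissolved in aqueous acetone, was sprayed over planted soil cups at an equivalent of about 0.0156 to 0.500 kg/ha; seeds had been mixed with potting soil. Greenhouse growth followed, with visual 0-9 scoring of injury at four to five weeks.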

[3] = test system: TRZAWR (Wheat, Winter, cv Riband); test: Preemergence herbicidal evaluation; format: in vivo, Triticum aestivum; conditions: rated 4-5 weeks after treatment
In short: as §2

ZEAMX (Corn, Field) = test: Postemergence herbicidal evaluation; format: in vivo, Zea mays; conditions: postemergence
In short: as §1

SETVI (Foxtail, Green) = test: Preemergence herbicidal evaluation; format: in vivo, Setaria viridis; conditions: rated 4-5 weeks after treatment
In short: as §2

[4] = test system: IPOHE (Morningglory, Ivyleaf); test: Postemergence herbicidal evaluation; format: in vivo, Ipomoea hederacea; conditions: postemergence
In short: as §1

ABUTH (Velvetleaf) = test: Postemergence herbicidal evaluation; format: in vivo, Abutilon theophrasti; conditions: postemergence
In short: as §1

[5] = test system: SAGPY (Arrowhead (Pygmaea)); test: Preemergence weed control under flooded paddy conditions; format: in vivo, Sagittaria pygmaea; conditions: rated 3-4 weeks after treatment
In short: (§3)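 Greenhouse paddy assay. Acetone/water (50/50 v/v) solutions dosed into flood water, equivalent to about 0.0313 to 0.500 kg/ha active ingredient, over seeds planted 0.5 cm deep in silt loam. Score: 0-9 visual, based on stand, vigor, malformation, size and chlorosis, 3 to 4 weeks after treatment.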

GALAP (Galium) [6] = test: Preemergence herbicidal evaluation; format: in vivo, Galium aparine; conditions: rated 4-5 weeks after treatment
In short: as §2

CASOB (Sicklepod) [7] = test: Postemergence herbicidal evaluation; format: in vivo, Cassia obtusifolia; conditions: postemergence
In short: as §1

ORYSAT (Rice, Tebonnet) = test: Preemergence herbicidal evaluation; format: in vivo, Oryza sativa, (L.) Tebonnet; conditions: rated 4-5 weeks after treatment
In short: as §2

CASOB (Sicklepod) [8] = test: Preemergence herbicidal evaluation; format: in vivo, Cassia obtusifolia; conditions: rated 4-5 weeks after treatment
In short: as §2

[9] = test system: IPOHE (Morningglory, Ivyleaf); test: Preemergence herbicidal evaluation; format: in vivo, Ipomoea hederacea; conditions: rated 4-5 weeks after treatment
In short: as §2

[10] = test system: TRZAWR (Wheat, Winter, cv Riband); test: Postemergence herbicidal evaluation; format: in vivo, Triticum aestivum; conditions: postemergence
In short: as §1

MOOVA (Monochoria) = test: Preemergence weed control under flooded paddy conditions; format: in vivo, Monochoria vaginalis; conditions: rated 3-4 weeks after treatment
In short: as §3

Compound: C#CCOC(=O)CN1C(=O)CSC1=Nc1cc(-n2c(=O)cc(C(F)(F)F)n(C)c2=O)c(F)cc1Cl [Compound 115, 2-Propynyl 2-{{2-chloro-5-[3,6-dihydro-3-methyl-2,6-dioxo-4-(trifluoromethyl)-1(2H)-pyrimidinyl]-4-fluorophenyl}imino}-4-oxo-3-thiazolidineacetate]
- Herbicidal rating GALAP (GALAP (Galium) [1]; rate 0.0158 kg/ha): 0.0
- Herbicidal rating GALAP (GALAP (Galium) [1]; rate 0.0315 kg/ha): 0.0
- Herbicidal rating GALAP (GALAP (Galium) [1]; rate 0.0630 kg/ha): 2.0
- Herbicidal rating CHEAL ([2]; rate 0.0158 kg/ha): 0.0
- Herbicidal rating CHEAL ([2]; rate 0.0315 kg/ha): 1.0
- Herbicidal rating CHEAL ([2]; rate 0.0630 kg/ha): 4.0
- Preemergence herbicidal rating ECHCG (ECHCG (Barnyardgrass); rate 0.0156 kg/ha): 0.0
- Preemergence herbicidal rating ECHCG (ECHCG (Barnyardgrass); rate 0.0313 kg/ha): 0.0
- Preemergence herbicidal rating ECHCG (ECHCG (Barnyardgrass); rate 0.0625 kg/ha): 0.0
- Preemergence herbicidal rating ECHCG (ECHCG (Barnyardgrass); rate 0.1250 kg/ha): 0.0
- Preemergence herbicidal rating ECHCG (ECHCG (Barnyardgrass); rate 0.2500 kg/ha): 0.0
- Preemergence herbicidal rating TRZAWR ([3]; rate 0.0156 kg/ha): 0.0
- Preemergence herbicidal rating TRZAWR ([3]; rate 0.0313 kg/ha): 0.0
- Preemergence herbicidal rating TRZAWR ([3]; rate 0.0625 kg/ha): 0.0
- Preemergence herbicidal rating TRZAWR ([3]; rate 0.1250 kg/ha): 0.0
- Preemergence herbicidal rating TRZAWR ([3]; rate 0.2500 kg/ha): 4.0
- Herbicidal rating ZEAMX (ZEAMX (Corn, Field); rate 0.0158 kg/ha): 5.0
- Herbicidal rating ZEAMX (ZEAMX (Corn, Field); rate 0.0315 kg/ha): 6.5
- Herbicidal rating ZEAMX (ZEAMX (Corn, Field); rate 0.0630 kg/ha): 7.0
- Preemergence herbicidal rating SETVI (SETVI (Foxtail, Green); rate 0.0156 kg/ha): 1.0
- Preemergence herbicidal rating SETVI (SETVI (Foxtail, Green); rate 0.0313 kg/ha): 0.0
- Preemergence herbicidal rating SETVI (SETVI (Foxtail, Green); rate 0.0625 kg/ha): 0.0
- Preemergence herbicidal rating SETVI (SETVI (Foxtail, Green); rate 0.1250 kg/ha): 0.0
- Preemergence herbicidal rating SETVI (SETVI (Foxtail, Green); rate 0.2500 kg/ha): 4.0
- Herbicidal rating IPOHE ([4]; rate 0.0158 kg/ha): 9.0
- Herbicidal rating IPOHE ([4]; rate 0.0315 kg/ha): 9.0
- Herbicidal rating IPOHE ([4]; rate 0.0630 kg/ha): 9.0
- Herbicidal rating ABUTH (ABUTH (Velvetleaf); rate 0.0158 kg/ha): 3.0
- Herbicidal rating ABUTH (ABUTH (Velvetleaf); rate 0.0315 kg/ha): 9.0
- Herbicidal rating ABUTH (ABUTH (Velvetleaf); rate 0.0630 kg/ha): 9.0
- SAGPY herbicidal effect rating ([5]; 0.0313 kg/ha): 2.0
- SAGPY herbicidal effect rating ([5]; 0.0625 kg/ha): 3.0
- SAGPY herbicidal effect rating ([5]; 0.1250 kg/ha): 5.0
- SAGPY herbicidal effect rating ([5]; 0.2500 kg/ha): 6.0
- Preemergence herbicidal rating GALAP (GALAP (Galium) [6]; rate 0.0156 kg/ha): 1.0
- Preemergence herbicidal rating GALAP (GALAP (Galium) [6]; rate 0.0313 kg/ha): 3.0
- Preemergence herbicidal rating GALAP (GALAP (Galium) [6]; rate 0.0625 kg/ha): 3.0
- Preemergence herbicidal rating GALAP (GALAP (Galium) [6]; rate 0.1250 kg/ha): 7.0
- Preemergence herbicidal rating GALAP (GALAP (Galium) [6]; rate 0.2500 kg/ha): 9.0
- Herbicidal rating CASOB (CASOB (Sicklepod) [7]; rate 0.0158 kg/ha): 0.0
- Herbicidal rating CASOB (CASOB (Sicklepod) [7]; rate 0.0315 kg/ha): 1.0
- Herbicidal rating CASOB (CASOB (Sicklepod) [7]; rate 0.0630 kg/ha): 1.0
- Preemergence herbicidal rating ORYSAT (ORYSAT (Rice, Tebonnet); rate 0.0156 kg/ha): 0.0
- Preemergence herbicidal rating ORYSAT (ORYSAT (Rice, Tebonnet); rate 0.0313 kg/ha): 0.0
- Preemergence herbicidal rating ORYSAT (ORYSAT (Rice, Tebonnet); rate 0.0625 kg/ha): 0.0
- Preemergence herbicidal rating ORYSAT (ORYSAT (Rice, Tebonnet); rate 0.1250 kg/ha): 1.0
- Preemergence herbicidal rating ORYSAT (ORYSAT (Rice, Tebonnet); rate 0.2500 kg/ha): 3.0
- Preemergence herbicidal rating CASOB (CASOB (Sicklepod) [8]; rate 0.0156 kg/ha): 2.0
- Preemergence herbicidal rating CASOB (CASOB (Sicklepod) [8]; rate 0.0625 kg/ha): 0.0
- Preemergence herbicidal rating CASOB (CASOB (Sicklepod) [8]; rate 0.1250 kg/ha): 4.0
- Preemergence herbicidal rating CASOB (CASOB (Sicklepod) [8]; rate 0.2500 kg/ha): 2.0
- Preemergence herbicidal rating IPOHE ([9]; rate 0.0156 kg/ha): 0.0
- Preemergence herbicidal rating IPOHE ([9]; rate 0.0313 kg/ha): 0.0
- Preemergence herbicidal rating IPOHE ([9]; rate 0.0625 kg/ha): 0.0
- Preemergence herbicidal rating IPOHE ([9]; rate 0.1250 kg/ha): 2.0
- Preemergence herbicidal rating IPOHE ([9]; rate 0.2500 kg/ha): 7.0
- Herbicidal rating TRZAWR ([10]; rate 0.0158 kg/ha): 1.5
- Herbicidal rating TRZAWR ([10]; rate 0.0315 kg/ha): 2.5
- Herbicidal rating TRZAWR ([10]; rate 0.0630 kg/ha): 3.0
- MOOVA herbicidal effect rating (MOOVA (Monochoria); 0.0313 kg/ha): 7.0
- MOOVA herbicidal effect rating (MOOVA (Monochoria); 0.0625 kg/ha): 9.0
- MOOVA herbicidal effect rating (MOOVA (Monochoria); 0.1250 kg/ha): 9.0
- MOOVA herbicidal effect rating (MOOVA (Monochoria); 0.2500 kg/ha): 9.0
